Structures can show the parent of a compound that is named as a salt.
Key:
resistant form of EPSPS = assay: EPSPS assay of plant extracts +/- 0.1 mM glyphosate, resistant form; type: biochemical, rice; conditions: 0.1 mM N-(phosphonomethyl)glycine, 0.1 mM 14C-PEP, 0.75 mM shikimate-3-Pi, estimated
Experimental: (§1) Assays are carried out generally according to the radiochemical method of Padgette et al 1987 (Archives of Biochemistry and Biophysics, 258(2) 564-573) with K+ ions as the major species of cationic counterion. Assays in a total volume of 50 μl, in 50 mM Hepes(KOH) pH 7.0 at 25° C., contain purified enzyme or plant extract (see below) diluted appropriately in Hepes pH 7.0 containing 10% glycerol, and 5 mM DTT, ^14C PEP either as variable substrate (for kinetic determinations) or fixed at 100 or 250 μM and shikimate 3 Phosphate (K+ salt) at 2 or 0.75 mM as indicated. Optionally, for assays of crude plant extracts, assays also contain 5 mM KF and/or 0.1 mM ammonium molybdate. Assays are started with the addition of ^14C phosphoenolpyruvate (cyclohexylammonium+salt) and stopped after 2-10 minutes (2 minutes is preferable) with the addition of 50 μl of a solution of 1 part 1M acetic acid and 9 parts ethanol. […] Apparent Km and Vmax values are determined by least squares fit to a hyperbola with simple weighting using the Grafit 3.09b from Erithacus Software Ltd. Km values are generally ascertained using 8-9 concentrations of variable substrate ranging from Km/2-10 Km and triplicate points. […]

[1] = tested on: sensitive w/t form of EPSPS (endogenous); assay: EPSPS assay of plant extracts +/- 0.1 mM glyphosate, sensitive w/t form; type: biochemical, corn; conditions: 0.1 mM N-(phosphonomethyl)glycine, 0.1 mM 14C-PEP, 0.75 mM shikimate-3-Pi
Experimental: as §1

[2] = biological target: T1, mutant form of rice EPSPS (Oryza sativa, UniProt A0A0N9WU17, P177S/T173I); assay: EPSPS enzyme assay and kinetic constants, purified mutant rice EPSPS expressed in E. coli; type: biochemical
T1 sequence (A0A0N9WU17 72-515 T173I/P177S): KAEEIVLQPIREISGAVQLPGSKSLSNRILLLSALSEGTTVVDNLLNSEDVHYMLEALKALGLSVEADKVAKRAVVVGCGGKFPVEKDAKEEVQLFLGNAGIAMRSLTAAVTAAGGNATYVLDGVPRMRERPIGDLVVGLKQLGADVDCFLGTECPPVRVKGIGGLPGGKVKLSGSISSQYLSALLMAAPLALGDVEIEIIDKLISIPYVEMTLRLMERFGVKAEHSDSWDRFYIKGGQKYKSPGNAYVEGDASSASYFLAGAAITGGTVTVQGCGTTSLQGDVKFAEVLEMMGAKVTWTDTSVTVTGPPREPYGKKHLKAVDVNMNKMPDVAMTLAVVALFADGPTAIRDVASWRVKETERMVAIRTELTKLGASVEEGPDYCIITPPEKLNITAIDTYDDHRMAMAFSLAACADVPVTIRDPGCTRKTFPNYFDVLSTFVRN
Experimental: as §1

| Compound | inhibition of resistant (tolerant) EPSPS (resistant form of EPSPS) [%] | inhibition of resistant (tolerant) EPSPS (resistant form of EPSPS; listed as N-(phosphonomethyl)glycine) [%] | inhibition of sensitive w/t EPSPS [1] [%] | IC50 [2] [µM] | Ki [2] [µM] |
| --- | --- | --- | --- | --- | --- |
| O=C(O)CNCP(=O)(O)O [glyphosate, N-phosphonomethylglycine] | ~8 | < 8.5 | > 98 | – | – |
| O=C(O)CNCP(=O)(O)O [potassium salt of glyphosate] | – | – | – | ~600 | ~200 |
